What was measured:
[1] = target: T1, Human Neuropeptide Y2 Receptor (Homo sapiens, UniProt P49146); assay: Radioligand binding competition assay (RLB); conditions: Table 3; human 125I-PYY (1-36) 0.02 nM, Y2 receptor membranes; read-out: Ki
T1 construct: purchased CHEMICON HTS066M
T1 sequence (P49146 1-381): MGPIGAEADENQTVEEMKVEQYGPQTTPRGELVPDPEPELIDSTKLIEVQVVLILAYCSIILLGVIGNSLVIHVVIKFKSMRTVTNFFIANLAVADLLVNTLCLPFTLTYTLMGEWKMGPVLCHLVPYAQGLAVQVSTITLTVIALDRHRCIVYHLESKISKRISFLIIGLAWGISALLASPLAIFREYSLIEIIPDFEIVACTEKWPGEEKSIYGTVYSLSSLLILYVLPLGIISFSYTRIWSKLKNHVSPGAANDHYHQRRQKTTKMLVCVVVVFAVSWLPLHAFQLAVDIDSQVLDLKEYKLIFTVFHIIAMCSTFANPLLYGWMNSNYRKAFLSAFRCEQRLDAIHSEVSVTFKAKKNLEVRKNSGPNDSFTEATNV
Outline: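 Peptide dilutions made in pH 7.4 HEPES assay buffer with 0.2% ovalbumin; human Y2 receptor membranes added at 0.5 μg protein/well; plates shaken 2 h at room temperature; reaction stopped by vacuum filtration onto PEI-treated GF/C filters with ice-cold high-salt washes; radioactivity counted by scintillation.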

normal NMRI mice = assay: Effect on acute food intake in normal NMRI mice; type: in vivo; conditions: male NMRI mice, 10 nmol/kg subcutaneously once
Procedure: Male NMRI mice were obtained from Charles River (Charles River, Research Models & Services Germany GmbH) or from Jan Vier (Jan Vier Labs, France) at 5 weeks of age. […] Room temperature was controlled to 21° C.±1° C., with 60%+20% humidity.
Animals were transferred 5-7 days before the start of the study to a real-time food intake monitoring system, HM-2 system (MBRose, Denmark), to allow acclimatization to experimental conditions. As the animals were uniquely identified with microchips, each individual animal was identified by its microchip upon entry and exit from the food channel. Randomization of the mice for each study group (n=7-8) was based on body weight measured the day before the start of the study. A vehicle-treated (50 mM phosphate buffer pH7 with 5% Mannitol) group was included in each experiment. Six hours before the start of the night phase animals were fasted. One hour before the dark phase animals were dosed once subcutaneously (10 nmol/kg) with test peptide. […] The food intake of the treated groups was normalized (in %) to the average food intake of the group receiving vehicle (Table 7). Statistical significance was evaluated using One-way analysis of variance with Turkey's multiple comparison test. P<0.05 was considered statistically significant.

| Compound | Ki [1] [nM] | Acute Food Intake 24 h [% vehicle] (normal NMRI mice) |
| --- | --- | --- |
| CC(C)CC(=O)N[C@@H](C)C(=O)N1CCC[C@H]1C(=O)N[C@@H](CCC(=O)O)C(=O)N[C@@H](CCCCNC(=O)COCCOCCNC(=O)COCCOCCNC(=O)CC[C@H](NC(=O)CCCCCCCCCCCCCCCCC(=O)O)C(=O)O)C(=O)N1CCC[C@H]1C(=O)N[C@@H](CCC(=O)O)C(=O)N[C@@H](CCC(=O)O)C(=O)N[C@@H](CC(=O)O)C(=O)N[C@@H](C)C(=O)N[C@@H](CO)C(=O)N1CCC[C@H]1C(=O)N[C@@H](CCC(=O)O)C(=O)N[C@@H](CCC(=O)O)C(=O)N[C@@H](CC(C)C)C(=O)N[C@@H](CCC(N)=O)C(=O)N[C@@H](CCCCN)C(=O)N[C@@H](Cc1ccc(O)cc1)C(=O)N[C@@H](Cc1ccc(O)cc1)C(=O)N[C@H](C(=O)N[C@@H](CO)C(=O)N[C@@H](CC(C)C)C(=O)N[C@@H](CCCNC(=N)N)C(=O)N[C@@H](Cc1c[nH]cn1)C(=O)N[C@@H](Cc1ccc(O)cc1)C(=O)N[C@@H](Cc1ccc(O)cc1)C(=O)N[C@@H](CC(N)=O)C(=O)N[C@@H](Cc1c[nH]c2ccccc12)C(=O)N[C@@H](CC(C)C)C(=O)N[C@H](C(=O)N[C@@H](CCCNC(=N)N)C(=O)N[C@@H](CCC(N)=O)C(=O)N[C@@H](CCCNC(=N)N)C(=O)N[C@@H](Cc1ccc(O)cc1)C(N)=O)[C@@H](C)O)C(C)C [Compound 21, N{alpha-4}-(3-methylbutanoyl)-N{epsilon-7}-[2-(2-{2-[2-(2-{2-[(4S)-4-carboxy-4-(17-carboxyheptadecanamido)butanamido]ethoxy}ethoxy)acetamido]ethoxy}ethoxy)acetamido]-[4A,7K,9E,18Q,19K,22V,28Y,30W,31L]hPYY (4-36)] | 1.52 | 89 |
| CC(C)CC(=O)N[C@@H](C)C(=O)N1CCC[C@H]1C(=O)N[C@@H](CCC(=O)O)C(=O)N[C@@H](CCCCNC(=O)COCCOCCNC(=O)COCCOCCNC(=O)CC[C@H](NC(=O)CCCCCCCCCCCCCCCCC(=O)O)C(=O)O)C(=O)N1CCC[C@H]1C(=O)N[C@@H](CCC(=O)O)C(=O)N[C@@H](CCC(=O)O)C(=O)N1CCC[C@H]1C(=O)N[C@@H](C)C(=O)N[C@@H](CO)C(=O)N1CCC[C@H]1C(=O)N[C@@H](CCC(=O)O)C(=O)N[C@@H](CCC(=O)O)C(=O)N[C@@H](CC(C)C)C(=O)N[C@@H](CCC(N)=O)C(=O)N[C@@H](CCCNC(=N)N)C(=O)N[C@@H](Cc1ccc(O)cc1)C(=O)N[C@@H](Cc1ccc(O)cc1)C(=O)N[C@H](C(=O)N[C@@H](CCC(=O)O)C(=O)N[C@@H](CC(C)C)C(=O)N[C@@H](CCCNC(=N)N)C(=O)N[C@@H](Cc1c[nH]cn1)C(=O)N[C@@H](Cc1ccc(O)cc1)C(=O)N[C@@H](Cc1ccc(O)cc1)C(=O)N[C@@H](CC(N)=O)C(=O)N[C@@H](Cc1c[nH]c2ccccc12)C(=O)N[C@@H](CC(C)C)C(=O)N[C@H](C(=O)N[C@@H](CCCNC(=N)N)C(=O)N[C@@H](CCC(N)=O)C(=O)N[C@@H](CCCNC(=N)N)C(=O)N[C@@H](Cc1ccc(O)cc1)C(N)=O)[C@@H](C)O)C(C)C [Compound 33, N{alpha-4}-(3-methylbutanoyl)-N{epsilon-7}-[2-(2-{2-[2-(2-{2-[(4S)-4-carboxy-4-(17-carboxyheptadecanamido)butanamido]ethoxy}ethoxy)acetamido]ethoxy}ethoxy)acetamido]-[4A,7K,9E,11P,18Q,22V,23E,28Y,30W,31L]hPYY (4-36)] | 0.45 | 54 |
